Experimental data published in patent US20060223814A1, “Nk-2 antagonist basic linear compounds and formulations containing them” (priority 2003, published 2006).

These compounds were tested against T1, human NK-2 receptor (Homo sapiens, UniProt P21452) (assay: Binding test on membranes of CHO cells transfected with the human ileum NK-2 receptor, radioligand NKA in competition). Settings: CHO cell membranes; radioligand NKA 100 pM; incubation 30 min., 20° C.
T1 construct: expressed in transfected cells; host or cells: Chinese hamster ovary (CHO) cells, membranes
T1 sequence (P21452 1-398): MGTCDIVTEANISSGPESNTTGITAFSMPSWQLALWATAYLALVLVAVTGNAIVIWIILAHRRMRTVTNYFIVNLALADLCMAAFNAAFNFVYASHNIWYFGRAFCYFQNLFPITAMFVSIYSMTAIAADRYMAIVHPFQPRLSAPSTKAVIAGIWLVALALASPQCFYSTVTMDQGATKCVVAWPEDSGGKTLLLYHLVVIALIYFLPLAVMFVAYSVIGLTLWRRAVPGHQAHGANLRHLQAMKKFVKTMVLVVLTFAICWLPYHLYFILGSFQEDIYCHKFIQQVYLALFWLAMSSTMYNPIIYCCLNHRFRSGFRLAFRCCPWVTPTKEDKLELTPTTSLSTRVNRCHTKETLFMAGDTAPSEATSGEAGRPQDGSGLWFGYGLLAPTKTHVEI
Procedure: Assessment of the antagonist activity on NK-2 receptors was performed with binding and functional tests according to prior descriptions in the literature for NK-2 antagonists.
In particular, affinity of the compounds for the human NK-2 receptor was assessed in a binding test using membranes of Chinese hamster ovary (CHO) cells, transfected with the NK-2 receptor of human ileum and the radioligand ['251]NKA (Amersham, aspecific activity 2000 Ci/mmol) at a concentration of 100 pM in competition studies. The substances under examination were tested in a concentration range from 0.01 nM to 10 mM. At the end of incubation (30 min., 20° C.) the samples were filtered and the radioactivity was determined using a gamma-counter.
The data in table 1 were obtained for some compounds of general formula (I) and concern the values of affinity to the human NK-2 receptor: […]

Row | Compound | pKi (affinity to the human NK-2 receptor)
1 | (S) 6-Methyl-benzo[b]thiophene-2-carboxylic acid (1-{1-benzyl-4-[4-(2-hydroxy-ethyl)-piperidin-1-yl]-4-oxo-butylcarbamoyl)-cyclopentyl)-amide [Example 53] | 8.7

Same assay, conditions: CHO cell membranes; radioligand NKA 100 pM; incubation 30 min., 20° C.; read-out: pKi (affinity to the human NK-2 receptor) (converted)

Row | Ki [nM] | Compound
2 | 0.501 | Cc1ccc2cc(C(=O)NC3(C(=O)N[C@@H](COCCC4CCN(CC5CCOCC5)CC4)Cc4ccccc4)CCCC3)sc2c1 [Example 62]
3 | 0.0501 | Cc1ccc2cc(C(=O)NC3(C(=O)N[C@@H](CCCN4CCN(CC5CCOCC5)CC4)Cc4ccccc4)CCCC3)sc2c1 [Example 54, (S) 6-Methyl-benzo[b]thiophene-2-carboxylic acid (1-{1-benzyl-4-[4-(tetrahydro-pyran-4-ylmethyl)-piperazin-1-yl]-butylcarbamoyl}-cyclopentyl)-amide]
4 | 0.631 | CN(C)CCCNC(=O)C=C[C@@H](Cc1ccccc1)NC(=O)C1(NC(=O)c2cc3ccccc3s2)CCCC1 [Example 46, (R) Benzo[b]thiophene-2-carboxylic acid {1-[1-benzyl-3-(3-dimethylamino-propylcarbamoyl)-allylcarbamoyl]-cyclopentyl)-amide]
5 | 0.0794 | Cc1ccc2cc(C(=O)NC3(C(=O)N[C@@H](CCC(=O)N4CCN(CC5CCOCC5)CC4)Cc4ccccc4)CCCC3)sc2c1 [Example 51]
6 | 0.126 | O=C(NC1(C(=O)N[C@@H](CCCN2CCC(Cc3ccccc3)CC2)Cc2ccccc2)CCCC1)c1cc2ccccc2s1 [Example 50, (S) Benzo[b]thiophene-2-carboxylic acid {1-[1-benzyl-4-(4-benzyl-piperidin-1-yl)-butylcarbamoyl]-cyclopentyl}-amide]
7 | 0.126 | Cc1ccc2cc(C(=O)NC3(C(=O)N[C@@H](CCCC4CCN(CC5CCOCC5)CC4)Cc4ccccc4)CCCC3)sc2c1 [Example 58, (S) 6-Methyl-benzo[b]thiophene-2-carboxylic acid (1-{1-benzyl-4-[1-(tetrahydro-pyran-4-ylmethyl)-piperidin-4-yl]-butylcarbamoyl}-cyclopentyl)-amide]
8 | 0.1 | Cc1ccc2cc(C(=O)NC3(C(=O)N[C@@H](CCCN4CCN(C(=O)C5CCOCC5)CC4)Cc4ccccc4)CCCC3)sc2c1 [Example 55, (S) 6-Methyl-benzo[b]thiophene-2-carboxylic acid (1-{1-benzyl-4-[4-(tetrahydro-pyran-4-carbonyl)-piperazin-1-yl]-butylcarbamoyl}-cyclopentyl)-amide]
9 | 0.0794 | Cc1ccc2cc(C(=O)NC3(C(=O)N[C@@H](CCC(=O)N4CCN(C5CCOCC5)CC4)Cc4ccccc4)CCCC3)sc2c1 [Example 52, (S) 6-Methyl-benzo[b]thiophene-2-carboxylic acid (1-{1-benzyl-4-oxo-4-[4-(tetrahydro-pyran-4-yl)-piperazin-1-yl]-butylcarbamoyl}-cyclopentyl)amide]
